Tested on: HeLa cells
Assay: Assay 1 cell proliferation measurement (CTG, 72 h), HeLa
Type: cell-based, human
Details: Homo sapiens, HeLa; Assay 1, 72 h, Cell Titer Glo; read-out: HeLa IC50 [nM] (Cervical cancer)
Description: Cell Proliferation Measurement
The antiproliferative activity of the compounds of the general formula (I) was examined in vitro in human cancer cells. For this purpose, the appropriate number of cells (Hela: 800; SK-MEL-3: 1000; A549: 800) were plated in 384-well plates with appropriate growth medium ((A549: DMEM/Ham's F12 (Biochrom; #FG 4815 with stabile Glutamine), FCS 10% final (Biochrom; #S 0415); Hela: DMEM/Ham's F12 (Biochrom; #FG 4815 with stabile Glutamine), FCS 10% final (Biochrom; #S 0415); SK-MEL-3: McCoy's 5A (Biochrom; #F 1015), FCS 10% final (Biochrom; #S 0415), L-Alanyl-L-Glutamine final: 2 mM, (Biochrom; #K 0302)) and incubated at 37° C. overnight. After 24 h, cells on one plate (0 h plate) were treated with 30 μl/cavity of CTG solution (Promega Cell Titer Glo (catalogue #G755B and G756B)) and incubated at room temperature for 10 min, and luminescence was measured by means of a VICTOR V (Perkin Elmer), in order to determine cell viability on commencement of treatment. The cells on the test plate were treated with the compounds of the general formula (I) as and incubated at 37° C. for 72 h. The compounds were added to the cells by means of an HP D300 digital dispenser in a 10-step 2.5-fold dilution series generally starting at a maximum final drug concentration of 100 nM. As control, the cells were treated with vehicle (DMSO at 0.3% final concentration). After 72 h, the cells were treated with 30 μl/cavity of CTG solution (Promega Cell Titer Glo (catalogue #G755B and G756B)) and incubated at room temperature for 10 min. and luminescence was measured by means of a VICTOR V (Perkin Elmer), in order to determine cell viability at the end of treatment. The percentage effect on cell growth and the IC50 derived therefrom were determined for each test substance using the values from the 0 h plate […] and the DMSO control […]. The IC50 values were calculated using a 4-parameter fit.

Going from `O=C1NN=C(c2ccc(NCCCn3cnnc3)c(C(F)(F)F)c2)CO1` [Example 312, 5-[4-{[3-(4H-1,2,4-triazol-4-yl)propyl]amino}-3-(trifluoromethyl)phenyl]-3,6-dihydro-2H-1,3,4-oxadiazin-2-one] to `O=C1NN=C(c2ccc(NCCCn3ccnc3)c(C(F)(F)F)c2)CO1` [Example 282, 5-[4-{[3-(1H-imidazol-1-yl)propyl]amino}-3-(trifluoromethyl)phenyl]-3,6-dihydro-2H-1,3,4-oxadiazin-2-one], the IC50 falls from > 100 nM to 13 nM.

Compared with `CC(C)C[C@H](CO)Nc1ccc(C2=NNC(=O)OC2)cc1C(F)(F)F` [Example 293, 5-[4-{[(2R)-1-hydroxy-4-methylpentan-2-yl]amino}-3-(trifluoromethyl)phenyl]-3,6-dihydro-2H-1,3,4-oxadiazin-2-one], `CNC(=O)CCNc1ccc(C2=NNC(=O)OC2)cc1C(F)(F)F` [Example 303, N-methyl-N^3-[4-(2-oxo-3,6-dihydro-2H-1,3,4-oxadiazin-5-yl)-2-(trifluoromethyl)phenyl]-beta-alaninamide] is higher in IC50: 43 nM for the first, > 100 nM for the second. The first is the more potent here.

Compared with `CC(=O)NCCNc1ccc(C2=NNC(=O)OC2)cc1C(F)(F)F` [Example 316, N-{2-[4-(2-oxo-3,6-dihydro-2H-1,3,4-oxadiazin-5-yl)-2-(trifluoromethyl)anilino]ethyl}acetamide], `O=C1NN=C(c2ccc(NCCn3ccnn3)c(C(F)(F)F)c2)CO1` [Example 297, 5-[4-{[2-(1H-1,2,3-triazol-1-yl)ethyl]amino}-3-(trifluoromethyl)phenyl]-3,6-dihydro-2H-1,3,4-oxadiazin-2-one] is lower in IC50: > 100 nM for the first, 59 nM for the second.

First: CN(C)C1CCN(c2ccc(C3=NNC(=O)OC3)cc2C(F)(F)F)C1 (stereo not drawn) [Example 310, 5-{4-[3-(dimethylamino)pyrrolidin-1-yl]-3-(trifluoromethyl)phenyl}-3,6-dihydro-2H-1,3,4-oxadiazin-2-one]
Second: NC(=O)C1CN(c2ccc(C3=NNC(=O)OC3)cc2C(F)(F)F)C1 [Example 287, 1-[4-(2-oxo-3,6-dihydro-2H-1,3,4-oxadiazin-5-yl)-2-(trifluoromethyl)phenyl]azetidine-3-carboxamide]
The IC50 of the first is higher: > 100 nM for the first, 23 nM for the second. The second is the more potent here.

Going from `O=C1NN=C(c2ccc(N3CCC4(CCOC4)C3)c(C(F)(F)F)c2)CO1` (stereo not drawn) [Example 284, 5-[4-(2-oxa-7-azaspiro[4.4]nonan-7-yl)-3-(trifluoromethyl)phenyl]-3,6-dihydro-2H-1,3,4-oxadiazin-2-one] to `O=C1NN=C(c2ccc(NCC3CCOCC3)c(C(F)(F)F)c2)CO1` [Example 294, 5-[4-{[(oxan-4-yl)methyl]amino}-3-(trifluoromethyl)phenyl]-3,6-dihydro-2H-1,3,4-oxadiazin-2-one], the IC50 rises from 14 nM to 45 nM (3.2-fold). The first is the more potent here.

First: O=C1NN=C(c2ccc(NCc3cncnc3)c(C(F)(F)F)c2)CO1 [Example 299, 5-[4-{[(pyrimidin-5-yl)methyl]amino}-3-(trifluoromethyl)phenyl]-3,6-dihydro-2H-1,3,4-oxadiazin-2-one]
Second: O=C1CCC(CNc2ccc(C3=NNC(=O)OC3)cc2C(F)(F)F)N1 (stereo not drawn) [Example 290, 5-[4-{[(5-oxopyrrolidin-2-yl)methyl]amino}-3-(trifluoromethyl)phenyl]-3,6-dihydro-2H-1,3,4-oxadiazin-2-one]
The IC50 of the first is 2.2-fold higher: 69 nM for the first, 32 nM for the second.

`CC1CC(Nc2ccc(C3=NNC(=O)OC3)cc2C(F)(F)F)CCN1` (stereo not drawn) [Example 311, 5-{4-[(2-methylpiperidin-4-yl)amino]-3-(trifluoromethyl)phenyl}-3,6-dihydro-2H-1,3,4-oxadiazin-2-one] and `CN1CCC(Nc2ccc(C3=NNC(=O)OC3)cc2C(F)(F)F)CC1` [Example 309, 5-{4-[(1-methylpiperidin-4-yl)amino]-3-(trifluoromethyl)phenyl}-3,6-dihydro-2H-1,3,4-oxadiazin-2-one] cannot be ordered by IC50: > 100 nM for the first, > 100 nM for the second.

With `O=C1NN=C(c2ccc(NCCN3CCCCC3)c(C(F)(F)F)c2)CO1` [Example 317, 5-[4-{[2-(piperidin-1-yl)ethyl]amino}-3-(trifluoromethyl)phenyl]-3,6-dihydro-2H-1,3,4-oxadiazin-2-one] the IC50 was > 100 nM.

Reference: patent US11427553B2, “Dihydrooxadiazinones” (Bayer Aktiengesellschaft, priority 2017, dated 2022)
